Laboratory results as given in patent US20100221200A1, “COMPOSITIONS AND METHODS FOR SKIN CARE” (THE OHIO STATE UNIVERSITY RESEARCH FOUNDATION, priority 2007, published 2010).
Square brackets hold non-standard residues; d marks the D form. Peptide text beside a SMILES is read from it.

Columns and labels:
[1] = tested on: summer-active ground squirrels; settings: administered to summer-active ground squirrels; cited from earlier work
[2] = tested on: isolated or transplanted organs including heart, lung and kidneys; settings: cited from earlier work
[3] = tested on: skin of the malar surface of the face; assay: Blinded split-face topical application of deltorphin cream: skin appearance and wrinkles; format: in vivo
Procedure: (§1) A test subject (body weight ˜71 kg) received an application of 10 μg deltorphin, constituted in an inert base, to the malar surface on the left side of the face extending from the periorbital region to the mandible. The inert base (without the deltorphin) was applied to the right side of the face but the subject was blind to which cream contained the deltorphin. The cream was applied twice daily, in the morning and night. After 3 weeks, the subject was observed.
A test subject (˜55 kg) received an application of 1 μg of deltorphin in an inert base to the malar surface of the right side of the face, with an identical inert cream applied to the left in a blinded fashion (the subject was unaware of which cream contained the active peptide). After three weeks of morning and evening application of the cream (no other topical agents were applied), the subject was scored for appearance.
(§2) A test subject (˜61 kg) received an application of 100 μg of deltorphin in an inert base to the malar surface on the right side, with an equal amount of inert base, but no active peptide, applied blindly to the left side of the face. The two creams were applied twice daily, morning and night, for three weeks prior to being observed.

[4] = tested on: skin of the malar surface of the face; assay: Blinded split-face topical application of deltorphin cream: local tolerance (irritation, allergy); format: in vivo
Procedure: as §1, §2

[5] = Example 1: subject, 10 μg deltorphin in inert base, twice daily, 3 weeks
[6] = Example 3: subject, 100 μg deltorphin in inert base, twice daily, three weeks

SMILES: CC(C)C[C@@H](NC(=O)[C@H](Cc1ccccc1)NC(=O)CNC(=O)[C@@H](C)NC(=O)[C@@H](N)Cc1ccc(O)cc1)C(=O)O [DADLE, Tyr-D-Ala-Gly-Phe-D-Leu]
- induction of hibernation [1]: induces hibernation
- viability and preservation of organs [2]: improves the viability and preservation

SMILES: CSCC[C@H](NC(=O)[C@H](CC(C)C)NC(=O)[C@H](Cc1c[nH]cn1)NC(=O)[C@H](Cc1ccccc1)NC(=O)[C@@H](CCSC)NC(=O)[C@@H](N)Cc1ccc(O)cc1)C(=O)N[C@@H](CC(=O)O)C(N)=O [deltorphin, Tyr-D-Met-Phe-His-Leu-Met-Asp-NH2] (H-Y[dM]FHLMD-NH2)
- appearance of treated side of the face versus inert-base side ([3]; Example 1: subject, 10 μg deltorphin in inert base, left side, twice daily, 3 weeks): noticeable improved appearance
- wrinkles (fine and moderate) [3, 5]: appeared diminished
- wrinkles, particularly in the periorbital region ([3]; Example 2: subject, 1 μg deltorphin in inert base, morning and evening, three weeks): marked reduction in wrinkles
- appearance of treated side of the face versus inert-base side ([3]; Example 2: subject, 1 μg deltorphin in inert base, right side, morning and evening, three weeks): noticeable difference was apparent
- appearance of treated side of the face versus inert-base side ([3]; Example 3: subject, 100 μg deltorphin in inert base, right side, twice daily, three weeks): significant and visible improvements
- wrinkles (fine and deep) [3, 6]: readily notable improvements and diminishment in wrinkles

SMILES: CSCC[C@H](NC(=O)[C@H](CC(C)C)NC(=O)[C@H](Cc1cnc[nH]1)NC(=O)[C@H](Cc1ccccc1)NC(=O)[C@@H](CCSC)NC(=O)[C@@H](N)Cc1ccc(O)cc1)C(=O)N[C@@H](CC(=O)O)C(N)=O [deltorphin, Tyr-D-Met-Phe-His-Leu-Met-Asp-NH2] (H-Y[dM]FHLMD-NH2)
- signs of irritation, redness, heat or swelling [4, 5]: no sign of any irritation, no redness, heat or swelling
- eye irritation after inadvertent contact of the cream with the eye ([4]; Example 3: subject, 100 μg deltorphin cream, one occasion, subject's report): without any significant eye irritation or redness
- signs of allergy, hypersensitivity or irritation (redness, swelling, heat, pruritus) [4, 6]: no signs of any allergy, hypersensitivity or irritation
